According to patent US20240287138A1, “CYCLIC PEPTIDES FOR INHIBITING TNF RECEPTOR 1 ACTIVITY” (Merck Sharp & Dohme LLC, priority 2023, published 2024):
Numbered stars: 1 amine (or outer) side, 2 acyl side, 3 side chain; on linkers, the order of the positions; unused ones are H or OH. Bridge positions count the residues as written; N and C are the ends. Square brackets hold non-standard residues; d marks the D form. Peptide text beside a SMILES is read from it. Trp(βS-Me,7-OMe) = COc1cccc2c([C@H](C)[C@H](N)C(=O)O)c[nH]c12; Phe(3R-OH) = O=C([C@@H](N[*:1])[C@H](O[*:3])c1ccccc1)[*:2]; Achc(cis-1,4) = O=C([C@H]1CC[C@@H](N[*:1])CC1)[*:2]; Trp(7-Cl) = N[C@@H](Cc1c[nH]c2c(Cl)cccc12)C(=O)O; Phe(4-CONH2) = NC(=O)c1ccc(C[C@H](N)C(=O)O)cc1; Phe(4-COOH) = N[C@@H](Cc1ccc(C(=O)O)cc1)C(=O)O; Trp(7-F) = N[C@@H](Cc1c[nH]c2c(F)cccc12)C(=O)O; Trp(7-aza) = N[C@@H](Cc1c[nH]c2ncccc12)C(=O)O; Phe(4-CH2NH2) = NCc1ccc(C[C@H](N)C(=O)O)cc1; Ala(4-thiazolyl) = N[C@@H](Cc1cscn1)C(=O)O; Pip(5R-OH) = O=C(O)[C@@H]1CC[C@@H](O)CN1; X4 = O=C([C@H]1C=C[C@@H](N[*:1])C1)[*:2]; X1 = O=C([C@@H]1CC[C@H](N[*:1])C1)[*:2]; dPro(4,4-F2) = O=C(O)[C@H]1CC(F)(F)CN1; d(cisHyp) = O=C(O)[C@H]1C[C@@H](O)CN1; Pip(4-aza) = O=C(O)[C@@H]1CNCCN1; hPhe = N[C@@H](CCc1ccccc1)C(=O)O; 4Pal = N[C@@H](Cc1ccncc1)C(=O)O; NMeE = CN[C@@H](CCC(=O)O)C(=O)O; dHyp = O=C(O)[C@H]1C[C@H](O)CN1; Cit = NC(=O)NCCC[C@H](N)C(=O)O; αMeS = C[C@](N)(CO)C(=O)O; NMeA = CN[C@@H](C)C(=O)O; Nle = CCCC[C@H](N)C(=O)O; Sar = CNCC(=O)O

Tests used:
[1] = biological target: T1, human TNFR1 extracellular domain (ECD) protein (Homo sapiens, UniProt P19438); test: SPR binding affinity to captured human TNFR1 ECD
T1 construct: HRV 3C protease cleavage site (C); 6His (C, cleaved yes); made in house; host or cells: Sf21 insect cells (baculovirus), secreted
T1 sequence (P19438 30-211): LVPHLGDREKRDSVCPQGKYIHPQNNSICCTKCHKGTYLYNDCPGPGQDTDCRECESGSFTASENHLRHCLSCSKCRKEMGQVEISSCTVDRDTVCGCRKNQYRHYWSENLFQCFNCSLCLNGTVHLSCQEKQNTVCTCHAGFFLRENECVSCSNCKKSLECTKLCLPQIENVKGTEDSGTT
Method in brief: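 Biotinylated human TNFR1 or TNFR2 ECD (C-terminal Avi-tag, Sf21-expressed) captured on a regenerable streptavidin chip; peptide analytes flowed in 10 mM HEPES pH 7.4, 150 mM NaCl, 3 mM EDTA, 0.05% P20, 2% DMSO. kon and koff measured; affinity calculated from the rate constants.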

[2] = biological target: T2, TNFα-induced NF-κB signal transduction pathway (TNFR1 signaling) in THP-1 cells (Homo sapiens, UniProt P19438); test: THP-1 Lucia NF-κB reporter cell assay, inhibition of TNFα-induced NF-κB signaling; assay type: cell-based; conditions: THP-1 NF-κB Lucia reporter cells, 10 ng/mL TNFα, 16-18 h, secreted luciferase; read-out: THP-1 IC50
T2 sequence (P19438 30-455): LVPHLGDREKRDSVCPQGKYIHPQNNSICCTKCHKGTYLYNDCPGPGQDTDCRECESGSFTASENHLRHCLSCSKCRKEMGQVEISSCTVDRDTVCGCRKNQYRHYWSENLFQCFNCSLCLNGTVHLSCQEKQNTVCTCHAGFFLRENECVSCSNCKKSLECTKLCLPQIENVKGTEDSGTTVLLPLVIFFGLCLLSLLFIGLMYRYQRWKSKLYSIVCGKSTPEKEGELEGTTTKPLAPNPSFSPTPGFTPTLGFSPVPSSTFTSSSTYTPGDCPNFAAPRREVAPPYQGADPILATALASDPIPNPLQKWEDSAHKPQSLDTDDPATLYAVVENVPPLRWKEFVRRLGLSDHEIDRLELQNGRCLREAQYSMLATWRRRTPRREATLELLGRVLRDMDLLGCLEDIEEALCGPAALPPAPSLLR
Method in brief: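 Inhibition of TNFR1-driven NF-κB activation was measured as luminescence of secreted reporter luciferase following overnight (16-18 h) stimulation with 10 ng/mL TNFα.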

Compound	Kd [1]	IC50 [2]
CCCC[C@@H]1NC(=O)[C@H]2CC[C@H](CC2)NC(=O)[C@H]([C@@H](C)c2c[nH]c3c(OC)cccc23)NC(=O)CN(C)C(=O)[C@H](Cc2ccc(O)cc2)NC(=O)[C@H](Cc2ccc(C(=O)O)cc2)NC(=O)[C@](C)(CO)NC(=O)[C@H](Cc2c[nH]c3c(Cl)cccc23)NC(=O)[C@H](Cc2ccncc2)NC(=O)[C@H](CC(N)=O)NC(=O)[C@H](CCC(=O)O)N(C)C(=O)[C@H](Cc2c[nH]c3ccccc23)NC(=O)[C@H](CO)NC(=O)[C@H](Cc2ccc(CN)cc2)NC1=O [SEQ ID NO. 244] (cyclo([4Pal][Trp(7-Cl)][αMeS][Phe(4-COOH)]Y[Sar][Trp(βS-Me,7-OMe)][Achc(cis-1,4)][Nle][Phe(4-CH2NH2)]SW[NMeE]N))	0.09 nM	4.5 nM
CCCC[C@@H]1NC(=O)[C@@H]2CC[C@@H](C2)NC(=O)[C@H]([C@@H](C)c2c[nH]c3c(OC)cccc23)NC(=O)CN(C)C(=O)[C@H](Cc2ccc(C(=O)O)cc2)NC(=O)[C@H](Cc2ccc(C(N)=O)cc2)NC(=O)[C@](C)(CO)NC(=O)[C@H](Cc2c[nH]c3c(Cl)cccc23)NC(=O)[C@H](Cc2ccc(C(=O)O)cc2)NC(=O)[C@H](CC(N)=O)NC(=O)[C@H]2C[C@H](O)CN2C(=O)[C@H](Cc2c[nH]c3ccccc23)NC(=O)[C@@H]2CC[C@@H](O)CN2C(=O)[C@H](Cc2ccncc2)NC1=O [SEQ ID NO. 247] (cyclo([4Pal][Pip(5R-OH)]W[dHyp]N[Phe(4-COOH)][Trp(7-Cl)][αMeS][Phe(4-CONH2)][Phe(4-COOH)][Sar][Trp(βS-Me,7-OMe)][X1][Nle]))	0.07 nM	0.5 nM
C[C@H]1C(=O)N[C@@H](CC(N)=O)C(=O)N[C@@H](Cc2ccncc2)C(=O)N[C@@H](Cc2c[nH]c3ccccc23)C(=O)N[C@@](C)(CO)C(=O)N[C@@H](Cc2ccc(C(=O)O)cc2)C(=O)N[C@@H](Cc2ccc(O)cc2)C(=O)N(C)CC(=O)N[C@@H](Cc2c[nH]c3ccccc23)C(=O)N[C@@H]2C=C[C@@H](C2)C(=O)N[C@@H](CCc2ccccc2)C(=O)N[C@@H](Cc2ccncc2)C(=O)N[C@@H](CO)C(=O)N[C@@H](Cc2c[nH]c3ccccc23)C(=O)N1C [SEQ ID NO. 248] (cyclo([4Pal]SW[NMeA]N[4Pal]W[αMeS][Phe(4-COOH)]Y[Sar]W[X4][hPhe]))	2 nM	10.6 nM
CCCC[C@@H]1NC(=O)CSC[C@@H](C(N)=O)NC(=O)[C@H]([C@@H](C)c2c[nH]c3c(OC)cccc23)NC(=O)CN(C)C(=O)[C@H](Cc2ccc(O)cc2)NC(=O)[C@H](Cc2ccc(C(=O)O)cc2)NC(=O)[C@](C)(CO)NC(=O)[C@H](Cc2c[nH]c3c(Cl)cccc23)NC(=O)[C@H](Cc2ccncc2)NC(=O)[C@H](CC(N)=O)NC(=O)[C@H](CCC(=O)O)N(C)C(=O)[C@H](Cc2c[nH]c3ncccc23)NC(=O)[C@H](Cc2cscn2)NC(=O)[C@H](Cc2ccncc2)NC1=O [SEQ ID NO. 253] ({CH2CO}-[Nle][4Pal][Ala(4-thiazolyl)][Trp(7-aza)][NMeE]N[4Pal][Trp(7-Cl)][αMeS][Phe(4-COOH)]Y[Sar][Trp(βS-Me,7-OMe)]C-NH2; thioether N-14)	1.09 nM	4.4 nM
CN1CC(=O)N[C@@H](Cc2c[nH]c3ccccc23)C(=O)N[C@H](C(N)=O)CSCC(=O)N[C@@H](CCCCN)C(=O)N[C@@H](Cc2ccc(O)cc2)C(=O)N[C@@H](CO)C(=O)N[C@@H](Cc2c[nH]c3ccccc23)C(=O)N2CCC[C@@H]2C(=O)N[C@@H](CCCNC(N)=O)C(=O)N[C@@H](Cc2ccncc2)C(=O)N[C@@H](Cc2c[nH]c3ccccc23)C(=O)N[C@@](C)(CO)C(=O)N[C@@H](Cc2ccc(C(=O)O)cc2)C(=O)N[C@@H](Cc2ccc(O)cc2)C1=O [SEQ ID NO. 256] ({CH2CO}-KYSW[dP][Cit][4Pal]W[αMeS][Phe(4-COOH)]Y[Sar]WC-NH2; thioether N-14)	1.4 nM	6.1 nM
CCCC[C@@H]1NC(=O)CSC[C@@H](C(N)=O)NC(=O)[C@H]([C@@H](C)c2c[nH]c3c(OC)cccc23)NC(=O)CN(C)C(=O)[C@H](Cc2ccc(O)cc2)NC(=O)[C@H](Cc2ccc(C(=O)O)cc2)NC(=O)[C@](C)(CO)NC(=O)[C@H](Cc2c[nH]c3c(Cl)cccc23)NC(=O)[C@H](Cc2ccncc2)NC(=O)[C@H](CC(N)=O)NC(=O)[C@H](CCC(=O)O)N(C)C(=O)[C@H](Cc2c[nH]c3ncccc23)NC(=O)[C@H](CO)NC(=O)[C@H]([C@H](O)c2ccccc2)NC1=O [SEQ ID NO. 259] ({CH2CO}-[Nle][Phe(3R-OH)]S[Trp(7-aza)][NMeE]N[4Pal][Trp(7-Cl)][αMeS][Phe(4-COOH)]Y[Sar][Trp(βS-Me,7-OMe)]C-NH2; thioether N-14)	0.15 nM	1.9 nM
C[C@H]1C(=O)N[C@@H](CC(N)=O)C(=O)N[C@@H](Cc2ccncc2)C(=O)N[C@@H](Cc2c[nH]c3ccccc23)C(=O)N[C@@](C)(CO)C(=O)N[C@@H](Cc2ccc(C(=O)O)cc2)C(=O)N[C@@H](CCCNC(=N)N)C(=O)N(C)CC(=O)N[C@@H](Cc2c[nH]c3ccccc23)C(=O)N[C@H](C(N)=O)CSCC(=O)N[C@@H](CCc2ccccc2)C(=O)N[C@@H](Cc2ccc(O)cc2)C(=O)N[C@@H](CO)C(=O)N[C@@H](Cc2c[nH]c3ccccc23)C(=O)N1C [SEQ ID NO. 260] ({CH2CO}-[hPhe]YSW[NMeA]N[4Pal]W[αMeS][Phe(4-COOH)]R[Sar]WC-NH2; thioether N-14)	6 nM	50.1 nM
CCCC[C@@H]1NC(=O)CSC[C@@H](C(N)=O)NC(=O)[C@H]([C@@H](C)c2c[nH]c3c(OC)cccc23)NC(=O)CN(C)C(=O)[C@H](Cc2ccc(O)cc2)NC(=O)[C@H](Cc2ccc(C(=O)O)cc2)NC(=O)[C@](C)(CO)NC(=O)[C@H](Cc2c[nH]c3c(Cl)cccc23)NC(=O)[C@H](Cc2ccncc2)NC(=O)[C@H](CC(N)=O)NC(=O)[C@H]2C[C@@H](O)CN2C(=O)[C@H](Cc2c[nH]c3ncccc23)NC(=O)[C@@H]2CNCCN2C(=O)[C@H](Cc2ccncc2)NC1=O [SEQ ID NO. 261] ({CH2CO}-[Nle][4Pal][Pip(4-aza)][Trp(7-aza)][d(cisHyp)]N[4Pal][Trp(7-Cl)][αMeS][Phe(4-COOH)]Y[Sar][Trp(βS-Me,7-OMe)]C-NH2; thioether N-14)	0.2 nM	2.7 nM
CCCC[C@@H]1NC(=O)[C@@H]2CC[C@@H](C2)NC(=O)[C@H]([C@@H](C)c2c[nH]c3c(OC)cccc23)NC(=O)CN(C)C(=O)[C@H](Cc2ccc(O)cc2)NC(=O)[C@H](Cc2ccc(C(=O)O)cc2)NC(=O)[C@](C)(CO)NC(=O)[C@H](Cc2c[nH]c3c(Cl)cccc23)NC(=O)[C@H](Cc2ccncc2)NC(=O)[C@H](CC(N)=O)NC(=O)[C@H](CCC(=O)O)N(C)C(=O)[C@H](Cc2c[nH]c3c(Cl)cccc23)NC(=O)[C@@H]2CNCCN2C(=O)[C@H](Cc2ccncc2)NC1=O [SEQ ID NO. 262] (cyclo([4Pal][Trp(7-Cl)][αMeS][Phe(4-COOH)]Y[Sar][Trp(βS-Me,7-OMe)][X1][Nle][4Pal][Pip(4-aza)][Trp(7-Cl)][NMeE]N))	0.24 nM	1.2 nM
C[C@H]1C(=O)N[C@@H](CC(N)=O)C(=O)N[C@@H](Cc2ccncc2)C(=O)N[C@@H](Cc2c[nH]c3ccccc23)C(=O)N[C@@](C)(CO)C(=O)N[C@@H](Cc2ccc(C(=O)O)cc2)C(=O)N[C@@H](Cc2ccc(O)cc2)C(=O)N(C)CC(=O)N[C@@H](Cc2c[nH]c3ccccc23)C(=O)N[C@H](C(N)=O)CSCC(=O)N[C@@H](CCc2ccccc2)C(=O)N[C@@H](Cc2ccc(O)cc2)C(=O)N[C@@H](CO)C(=O)N[C@@H](Cc2c[nH]c3c(F)cccc23)C(=O)N1C [SEQ ID NO. 263] ({CH2CO}-[hPhe]YS[Trp(7-F)][NMeA]N[4Pal]W[αMeS][Phe(4-COOH)]Y[Sar]WC-NH2; thioether N-14)	1.6 nM	4.7 nM
CCCC[C@@H]1NC(=O)[C@@H]2CC[C@@H](C2)NC(=O)[C@H]([C@@H](C)c2c[nH]c3c(OC)cccc23)NC(=O)CN(C)C(=O)[C@H](Cc2ccc(O)cc2)NC(=O)[C@H](Cc2ccc(C(=O)O)cc2)NC(=O)[C@](C)(CO)NC(=O)[C@H](Cc2c[nH]c3c(Cl)cccc23)NC(=O)[C@H](Cc2ccncc2)NC(=O)[C@H](CC(N)=O)NC(=O)[C@H]2CC(F)(F)CN2C(=O)[C@H](Cc2c[nH]c3ccccc23)NC(=O)[C@@H]2CNCCN2C(=O)[C@H](Cc2ccncc2)NC1=O [SEQ ID NO. 266] (cyclo([4Pal][Trp(7-Cl)][αMeS][Phe(4-COOH)]Y[Sar][Trp(βS-Me,7-OMe)][X1][Nle][4Pal][Pip(4-aza)]W[dPro(4,4-F2)]N))	0.06 nM	0.9 nM
